Assay results from ChEMBL document CHEMBL3046556, “Microwave-assisted synthesis and antimicrobial screening of new imidazole derivatives bearing 4-thiazolidinone nucleus” (2013).
Converted amounts (≈) assume the structure as drawn. The source made the active and inactive calls. The rule behind the calls is not given here.

Key:
Candida albicans [1] = assay: Antifungal activity against Candida albicans MTCC 227 assessed as growth inhibition at 12.5 to 1000 ug/mL after 48 hr by broth dilution method; format: functional, organism-based
Pseudomonas aeruginosa [2] = assay: Antibacterial activity against Pseudomonas aeruginosa MTCC 1688 assessed as growth inhibition at 12.5 to 1000 ug/mL after 24 hr by NCCLS broth dilution method; format: functional, organism-based
Streptococcus pyogenes [3] = assay: Antibacterial activity against Streptococcus pyogenes MTCC 442 assessed as growth inhibition at 12.5 to 1000 ug/mL after 24 hr by NCCLS broth dilution method; format: functional, organism-based
Escherichia coli [4] = assay: Antibacterial activity against Escherichia coli MTCC 443 assessed as growth inhibition at 12.5 to 1000 ug/mL after 24 hr by NCCLS broth dilution method; format: functional, organism-based
Aspergillus clavatus [5] = assay: Antifungal activity against Aspergillus clavatus MTCC 1323 assessed as growth inhibition at 12.5 to 1000 ug/mL after 48 hr by broth dilution method; format: functional, organism-based
Aspergillus niger [6] = assay: Antifungal activity against Aspergillus niger MTCC 282 assessed as growth inhibition at 12.5 to 1000 ug/mL after 48 hr by broth dilution method; format: functional, organism-based
Staphylococcus aureus [7] = assay: Antibacterial activity against Staphylococcus aureus MTCC 96 assessed as growth inhibition at 12.5 to 1000 ug/mL after 24 hr by NCCLS broth dilution method; format: functional, organism-based
Pseudomonas aeruginosa [8] = assay: Antibacterial activity against Pseudomonas aeruginosa MTCC 1688 assessed as growth inhibition after 24 hr by NCCLS broth dilution method; format: functional; settings: MTCC 1688, 24 h
Staphylococcus aureus [9] = assay: Antibacterial activity against Staphylococcus aureus MTCC 96 assessed as growth inhibition after 24 hr by NCCLS broth dilution method; format: functional; settings: MTCC 96, 24 h
Streptococcus pyogenes [10] = assay: Antibacterial activity against Streptococcus pyogenes MTCC 442 assessed as growth inhibition after 24 hr by NCCLS broth dilution method; format: functional; settings: MTCC 442, 24 h
Aspergillus clavatus [11] = assay: Antifungal activity against Aspergillus clavatus MTCC 1323 assessed as growth inhibition after 48 hr by broth dilution method; format: functional; settings: MTCC 1323, 48 h
Candida albicans [12] = assay: Antifungal activity against Candida albicans MTCC 227 assessed as growth inhibition after 48 hr by broth dilution method; format: functional; settings: MTCC 227, 48 h
Escherichia coli [13] = assay: Antibacterial activity against Escherichia coli MTCC 443 assessed as growth inhibition after 24 hr by NCCLS broth dilution method; format: functional; settings: MTCC 443, 24 h
Aspergillus niger [14] = assay: Antifungal activity against Aspergillus niger MTCC 282 assessed as growth inhibition after 48 hr by broth dilution method; format: functional; settings: MTCC 282, 48 h

With `COc1ccccc1/C=C1/N=C(C)N(c2ccc(/C(C)=N/NC(N)=S)cc2)C1=O` the “growth inhibition (GI)” value (Candida albicans [1]) was “Active”, the “growth inhibition (GI)” value (Pseudomonas aeruginosa [2]) was “inactive” and the “growth inhibition (GI)” value (Streptococcus pyogenes [3]) was “inactive”. The “growth inhibition (GI)” value (Escherichia coli [4]) was “inactive”, the “growth inhibition (GI)” value (Aspergillus clavatus [5]) was “Active” and the “growth inhibition (GI)” value (Aspergillus niger [6]) was “Active”. For the same compound, the “growth inhibition (GI)” value (Staphylococcus aureus [7]) was “inactive”.
`CC1=N/C(=C/c2ccc(O)cc2)C(=O)N1c1ccc(/C(C)=N/NC(N)=S)cc1` was tested, and the “growth inhibition (GI)” value (Candida albicans [1]) was “Active”, the MIC (Pseudomonas aeruginosa [8]) was 500 µg/mL (≈ 1270 µM) and the MIC (Staphylococcus aureus [9]) was 500 µg/mL (≈ 1270 µM). The “growth inhibition (GI)” value (Escherichia coli [4]) was “inactive”, the MIC (Streptococcus pyogenes [10]) was 500 µg/mL (≈ 1270 µM) and the “growth inhibition (GI)” value (Aspergillus clavatus [5]) was “Active”. For the same compound, the “growth inhibition (GI)” value (Aspergillus niger [6]) was “Active”.
With `CC(=O)c1ccc(N2C(=O)/C(=C\c3ccc(F)cc3)N=C2C)cc1` the “growth inhibition (GI)” value (Candida albicans [1]) was “inactive”, the “growth inhibition (GI)” value (Pseudomonas aeruginosa [2]) was “inactive” and the “growth inhibition (GI)” value (Streptococcus pyogenes [3]) was “inactive”. The “growth inhibition (GI)” value (Escherichia coli [4]) was “inactive”, the “growth inhibition (GI)” value (Aspergillus clavatus [5]) was “inactive” and the “growth inhibition (GI)” value (Aspergillus niger [6]) was “inactive”. The “growth inhibition (GI)” value (Staphylococcus aureus [7]) was “inactive”.
`CC1=N/C(=C/c2ccc(F)cc2)C(=O)N1c1ccc(/C(C)=N/NC(N)=S)cc1` was tested, and the “growth inhibition (GI)” value (Candida albicans [1]) was “Active”, the “growth inhibition (GI)” value (Pseudomonas aeruginosa [2]) was “inactive” and the “growth inhibition (GI)” value (Streptococcus pyogenes [3]) was “inactive”. For the same compound, the “growth inhibition (GI)” value (Escherichia coli [4]) was “inactive”, the “growth inhibition (GI)” value (Aspergillus clavatus [5]) was “Active” and the “growth inhibition (GI)” value (Aspergillus niger [6]) was “Active”. The “growth inhibition (GI)” value (Staphylococcus aureus [7]) was “inactive”.
With `COc1ccc(/C=C2/N=C(C)N(c3ccc(/C(C)=N/NC(N)=S)cc3)C2=O)cc1` the “growth inhibition (GI)” value (Candida albicans [1]) was “Active”, the MIC (Pseudomonas aeruginosa [8]) was 500 µg/mL (≈ 1230 µM) and the MIC (Staphylococcus aureus [9]) was 500 µg/mL (≈ 1230 µM). For the same compound, the “growth inhibition (GI)” value (Escherichia coli [4]) was “inactive”, the MIC (Streptococcus pyogenes [10]) was 500 µg/mL (≈ 1230 µM) and the “growth inhibition (GI)” value (Aspergillus clavatus [5]) was “Active”. For the same compound, the “growth inhibition (GI)” value (Aspergillus niger [6]) was “Active”.
Compound `CC(=O)c1ccc(N2C(=O)/C(=C\c3ccc(O)cc3)N=C2C)cc1` has an MIC (Aspergillus clavatus [11]) of 1000 µg/mL (≈ 3120 µM), an MIC (Candida albicans [12]) of 1000 µg/mL (≈ 3120 µM) and an MIC (Escherichia coli [13]) of 1000 µg/mL (≈ 3120 µM). The “growth inhibition (GI)” value (Pseudomonas aeruginosa [2]) was “inactive”, the “growth inhibition (GI)” value (Streptococcus pyogenes [3]) was “inactive” and the MIC (Staphylococcus aureus [9]) was 1000 µg/mL (≈ 3120 µM). The “growth inhibition (GI)” value (Aspergillus niger [6]) was “inactive”.
In the case of `COc1ccccc1/C=C1/N=C(C)N(c2ccc(C(C)=O)cc2)C1=O`, the MIC (Aspergillus clavatus [11]) is reported as 250 µg/mL (≈ 748 µM), the “growth inhibition (GI)” value (Candida albicans [1]) is reported as “inactive” and the “growth inhibition (GI)” value (Pseudomonas aeruginosa [2]) is reported as “inactive”. The MIC (Aspergillus niger [14]) was 250 µg/mL (≈ 748 µM), the “growth inhibition (GI)” value (Streptococcus pyogenes [3]) was “inactive” and the “growth inhibition (GI)” value (Escherichia coli [4]) was “inactive”. For the same compound, the “growth inhibition (GI)” value (Aspergillus clavatus [5]) was “inactive” and the “growth inhibition (GI)” value (Staphylococcus aureus [7]) was “inactive”.
With `CC(=O)c1ccc(N2C(=O)/C(=C\c3cccc(O)c3)N=C2C)cc1` the “growth inhibition (GI)” value (Candida albicans [1]) was “inactive”, the “growth inhibition (GI)” value (Pseudomonas aeruginosa [2]) was “inactive” and the “growth inhibition (GI)” value (Streptococcus pyogenes [3]) was “inactive”. For the same compound, the “growth inhibition (GI)” value (Escherichia coli [4]) was “inactive”, the “growth inhibition (GI)” value (Aspergillus clavatus [5]) was “inactive” and the “growth inhibition (GI)” value (Aspergillus niger [6]) was “inactive”. The “growth inhibition (GI)” value (Staphylococcus aureus [7]) was “inactive”.
With `CC1=N/C(=C/c2ccc(C)cc2)C(=O)N1c1ccc(/C(C)=N/NC(N)=S)cc1` the “growth inhibition (GI)” value (Candida albicans [1]) was “Active”, the MIC (Pseudomonas aeruginosa [8]) was 500 µg/mL (≈ 1280 µM) and the MIC (Staphylococcus aureus [9]) was 500 µg/mL (≈ 1280 µM). The “growth inhibition (GI)” value (Escherichia coli [4]) was “inactive”, the MIC (Streptococcus pyogenes [10]) was 500 µg/mL (≈ 1280 µM) and the “growth inhibition (GI)” value (Aspergillus clavatus [5]) was “Active”. For the same compound, the “growth inhibition (GI)” value (Aspergillus niger [6]) was “Active”.
In the case of `CC1=N/C(=C/c2ccccc2O)C(=O)N1c1ccc(/C(C)=N/NC(N)=S)cc1`, the “growth inhibition (GI)” value (Candida albicans [1]) is reported as “Active”, the MIC (Pseudomonas aeruginosa [8]) is reported as 500 µg/mL (≈ 1270 µM) and the MIC (Staphylococcus aureus [9]) is reported as 500 µg/mL (≈ 1270 µM). The “growth inhibition (GI)” value (Escherichia coli [4]) was “inactive”, the MIC (Streptococcus pyogenes [10]) was 500 µg/mL (≈ 1270 µM) and the “growth inhibition (GI)” value (Aspergillus clavatus [5]) was “Active”. The “growth inhibition (GI)” value (Aspergillus niger [6]) was “Active”.
`CC(=O)c1ccc(N2C(=O)/C(=C\c3ccccc3)N=C2C)cc1` was tested, and the “growth inhibition (GI)” value (Candida albicans [1]) was “inactive”, the “growth inhibition (GI)” value (Pseudomonas aeruginosa [2]) was “inactive” and the “growth inhibition (GI)” value (Streptococcus pyogenes [3]) was “inactive”. The “growth inhibition (GI)” value (Escherichia coli [4]) was “inactive”, the “growth inhibition (GI)” value (Aspergillus clavatus [5]) was “inactive” and the “growth inhibition (GI)” value (Aspergillus niger [6]) was “inactive”. For the same compound, the “growth inhibition (GI)” value (Staphylococcus aureus [7]) was “inactive”.
In the case of `CC1=N/C(=C/c2cccc(O)c2)C(=O)N1c1ccc(/C(C)=N/NC(N)=S)cc1`, the MIC (Escherichia coli [13]) is reported as 1000 µg/mL (≈ 2540 µM), the “growth inhibition (GI)” value (Candida albicans [1]) is reported as “Active” and the “growth inhibition (GI)” value (Pseudomonas aeruginosa [2]) is reported as “inactive”. For the same compound, the “growth inhibition (GI)” value (Streptococcus pyogenes [3]) was “inactive”, the MIC (Staphylococcus aureus [9]) was 500 µg/mL (≈ 1270 µM) and the “growth inhibition (GI)” value (Aspergillus clavatus [5]) was “Active”. The “growth inhibition (GI)” value (Aspergillus niger [6]) was “Active”.
`CC1=N/C(=C/c2ccc(Cl)cc2)C(=O)N1c1ccc(/C(C)=N/NC(N)=S)cc1` was tested, and the “growth inhibition (GI)” value (Candida albicans [1]) was “Active”, the “growth inhibition (GI)” value (Pseudomonas aeruginosa [2]) was “inactive” and the “growth inhibition (GI)” value (Streptococcus pyogenes [3]) was “inactive”. The “growth inhibition (GI)” value (Escherichia coli [4]) was “inactive”, the “growth inhibition (GI)” value (Aspergillus clavatus [5]) was “Active” and the “growth inhibition (GI)” value (Aspergillus niger [6]) was “Active”. The “growth inhibition (GI)” value (Staphylococcus aureus [7]) was “inactive”.
For `CC(=O)c1ccc(N2C(=O)/C(=C\c3ccccc3O)N=C2C)cc1`, the MIC (Aspergillus clavatus [11]) was 1000 µg/mL (≈ 3120 µM), the MIC (Candida albicans [12]) was 1000 µg/mL (≈ 3120 µM) and the “growth inhibition (GI)” value (Pseudomonas aeruginosa [2]) was “inactive”. For the same compound, the “growth inhibition (GI)” value (Streptococcus pyogenes [3]) was “inactive”, the “growth inhibition (GI)” value (Escherichia coli [4]) was “inactive” and the “growth inhibition (GI)” value (Staphylococcus aureus [7]) was “inactive”.
`CC1=N/C(=C/c2ccccc2F)C(=O)N1c1ccc(/C(C)=N/NC(N)=S)cc1` was tested, and the “growth inhibition (GI)” value (Candida albicans [1]) was “Active”, the “growth inhibition (GI)” value (Pseudomonas aeruginosa [2]) was “inactive” and the “growth inhibition (GI)” value (Streptococcus pyogenes [3]) was “inactive”. The “growth inhibition (GI)” value (Escherichia coli [4]) was “inactive”, the “growth inhibition (GI)” value (Aspergillus clavatus [5]) was “Active” and the “growth inhibition (GI)” value (Aspergillus niger [6]) was “Active”. For the same compound, the “growth inhibition (GI)” value (Staphylococcus aureus [7]) was “inactive”.
